ChEMBL document CHEMBL3045661, “SYNTHESIS AND CYTOTOXIC PROPERTIES OF NITRO- AND AMINOCHALCONES” (Med Chem Res, 2005)

Tests used:
B16 = assay: Cytotoxicity against Mus musculus (mouse) B16 cells after 3 days by MTT assay; type: functional, cell-based; conditions: B16, 72 h
HeLa = assay: Cytotoxicity against Homo sapiens (human) HeLa cells; type: functional, cell-based

| Structure (SMILES) | IC50 (B16) [µM] | IC50 (HeLa) [µM] |
| --- | --- | --- |
| COc1ccc(OC)c(C(=O)/C=C/c2ccc(OC)c(N)c2)c1 | 2 |  |
| COc1ccc(/C=C/C(=O)c2ccc(OC)c(N)c2)cc1 | 43 |  |
| COc1cc(/C=C/C(=O)c2ccc(OC)c([N+](=O)[O-])c2)cc(OC)c1 | 5.6 |  |
| COc1ccc(OC)c(/C=C/C(=O)c2ccc(OC)c([N+](=O)[O-])c2)c1 | 13 |  |
| COc1cc(/C=C/C(=O)c2ccc(OC)c(N)c2)cc(OC)c1 | 8.8 |  |
| COc1ccc(OC)c(C(=O)/C=C/c2ccc(OC)c([N+](=O)[O-])c2)c1 | > 100 |  |
| COc1ccc(OC)c(/C=C/C(=O)c2ccc(OC)c(N)c2)c1 | 5.6 |  |
| COc1ccc(C(=O)/C=C/c2cc(OC)c(OC)c(OC)c2)cc1N | 67 |  |
| COc1cc(C(=O)/C=C/c2ccc(N)cc2)cc(OC)c1OC | 30 | 0.48 |
| COc1ccc(OC)c(C(=O)/C=C/c2ccc(N)cc2)c1 | > 100 |  |
| COc1ccc(C(=O)/C=C/c2ccccc2)cc1N | > 100 |  |
| COc1ccc(C(=O)/C=C/c2ccc(OC)c(OC)c2)cc1N | 18 |  |
| COc1ccc(/C=C/C(=O)c2ccc(OC)c([N+](=O)[O-])c2)cc1OC | > 100 |  |
| COc1cccc(/C=C/C(=O)c2ccc(OC)c([N+](=O)[O-])c2)c1 | > 100 |  |
| COc1ccc(C(=O)/C=C/c2cc(OC)c(OC)c(OC)c2)cc1[N+](=O)[O-] | > 100 |  |
| COc1ccc(/C=C/C(=O)c2cc(OC)c(OC)c(OC)c2)cc1[N+](=O)[O-] | > 100 |  |
| COc1ccc(/C=C/C(=O)c2cc(OC)c(OC)c(OC)c2)cc1N | 0.24 |  |
| COc1cc(C(=O)/C=C/c2ccc([N+](=O)[O-])cc2)cc(OC)c1OC | > 100 | 73 |
| COc1cccc(/C=C/C(=O)c2ccc(OC)c(N)c2)c1 | 33 |  |
| COc1ccc(C(=O)/C=C/c2ccccc2)cc1[N+](=O)[O-] | > 100 |  |
| COc1ccc(OC)c(C(=O)/C=C/c2ccc([N+](=O)[O-])cc2)c1 | > 100 |  |
| COc1ccc(/C=C/C(=O)c2ccc(OC)c([N+](=O)[O-])c2)cc1 | > 100 |  |
